Measurements published in PubChem BioAssay (NCI).
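Tested at 5 concentrations; 48 h exposure; 96-well plates; endpoints linearly interpolated, else capped at highest concentration. At the GI50, growth is halved. The concentration for full growth arrest is given as TGI.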

Tests used:
Test in all cases: inhibition of tumour cell growth, NCI panel, 48 h
ACHN renal = test system: ACHN renal
A498 renal = test system: A498 renal
U251 CNS = test system: U251 CNS
HOP-62 NSCLC = test system: HOP-62 NSCLC
SK-MEL-28 melanoma = test system: SK-MEL-28 melanoma
NCI-H460 lung = test system: NCI-H460 lung
OVCAR-3 ovarian = test system: OVCAR-3 ovarian
BT-549 breast = test system: BT-549 breast
UO-31 renal = test system: UO-31 renal
OVCAR-8 ovarian = test system: OVCAR-8 ovarian
MDA-MB-231 breast = test system: MDA-MB-231 breast
MOLT-4 leukemia = test system: MOLT-4 leukemia
HL-60(TB) leukemia = test system: HL-60(TB) leukemia
MCF7 breast = test system: MCF7 breast
NCI-H23 lung = test system: NCI-H23 lung
SN12C renal = test system: SN12C renal
MALME-3M melanoma = test system: MALME-3M melanoma
HCT-15 colon = test system: HCT-15 colon
PC-3 prostate = test system: PC-3 prostate
HCC-2998 colon = test system: HCC-2998 colon
SK-OV-3 ovarian = test system: SK-OV-3 ovarian
SF-268 CNS = test system: SF-268 CNS
OVCAR-4 ovarian = test system: OVCAR-4 ovarian
A549 NSCLC = test system: A549 NSCLC
RXF 393 renal = test system: RXF 393 renal
CAKI-1 renal = test system: CAKI-1 renal
SF-295 CNS = test system: SF-295 CNS
SK-MEL-2 melanoma = test system: SK-MEL-2 melanoma
IGROV1 ovarian = test system: IGROV1 ovarian
TK-10 renal = test system: TK-10 renal
HT29 colon = test system: HT29 colon
SK-MEL-5 melanoma = test system: SK-MEL-5 melanoma
CCRF-CEM leukemia = test system: CCRF-CEM leukemia
OVCAR-5 ovarian = test system: OVCAR-5 ovarian
786-0 renal = test system: 786-0 renal
MDA-MB-468 breast = test system: MDA-MB-468 breast
LOX IMVI melanoma = test system: LOX IMVI melanoma
SF-539 CNS = test system: SF-539 CNS
COLO 205 colon = test system: COLO 205 colon
HS 578T breast = test system: HS 578T breast
MDA-MB-435 = test system: MDA-MB-435
SNB-75 CNS = test system: SNB-75 CNS
NCI/ADR-RES ovarian = test system: NCI/ADR-RES ovarian
DU-145 prostate = test system: DU-145 prostate
M14 melanoma = test system: M14 melanoma
SW-620 colon = test system: SW-620 colon
UACC-62 melanoma = test system: UACC-62 melanoma
RPMI-8226 leukemia = test system: RPMI-8226 leukemia
HOP-92 NSCLC = test system: HOP-92 NSCLC
NCI-H522 lung = test system: NCI-H522 lung
SNB-19 CNS = test system: SNB-19 CNS
KM12 colon = test system: KM12 colon
K-562 leukemia = test system: K-562 leukemia
EKVX NSCLC = test system: EKVX NSCLC
T-47D breast = test system: T-47D breast
HCT-116 colon = test system: HCT-116 colon
UACC-257 melanoma = test system: UACC-257 melanoma
NCI-H226 lung = test system: NCI-H226 lung

Question: For `CC(=C(c1ccc(OCCCN(C)C)cc1)c1ccc(OCCCN(C)C)cc1)c1ccccc1`, which GI50 (ACHN renal) is on record?
Answer: 473 nM

Question: What about the TGI (ACHN renal) of the same compound?
Answer: 1040 nM

Question: What about the GI50 (A498 renal) of the same compound?
Answer: 3900 nM

Question: What about the TGI (A498 renal) of the same compound?
Answer: 7220 nM

Question: And the GI50 (U251 CNS)?
Answer: 461 nM

Question: And the TGI (U251 CNS)?
Answer: 1020 nM

Question: What about the GI50 (HOP-62 NSCLC) of the same compound?
Answer: 2620 nM

Question: What about the TGI (HOP-62 NSCLC) of the same compound?
Answer: 5930 nM

Question: What about the GI50 (SK-MEL-28 melanoma) of the same compound?
Answer: 376 nM

Question: And the TGI (SK-MEL-28 melanoma)?
Answer: 685 nM

Question: And the GI50 (NCI-H460 lung)?
Answer: 431 nM

Question: And the TGI (NCI-H460 lung)?
Answer: 1030 nM

Question: What about the GI50 (OVCAR-3 ovarian) of the same compound?
Answer: 454 nM

Question: What about the TGI (OVCAR-3 ovarian) of the same compound?
Answer: 1280 nM

Question: And the GI50 (BT-549 breast)?
Answer: 2440 nM

Question: And the TGI (BT-549 breast)?
Answer: 5420 nM

Question: What about the GI50 (UO-31 renal) of the same compound?
Answer: 360 nM

Question: And the TGI (UO-31 renal)?
Answer: 733 nM

Question: And the GI50 (OVCAR-8 ovarian)?
Answer: 979 nM

Question: And the TGI (OVCAR-8 ovarian)?
Answer: 3760 nM

Question: What about the GI50 (MDA-MB-231 breast) of the same compound?
Answer: 420 nM

Question: And the TGI (MDA-MB-231 breast)?
Answer: 907 nM

Question: What about the GI50 (MOLT-4 leukemia) of the same compound?
Answer: 627 nM

Question: And the TGI (MOLT-4 leukemia)?
Answer: 2430 nM

Question: What about the GI50 (HL-60(TB) leukemia) of the same compound?
Answer: 389 nM

Question: And the TGI (HL-60(TB) leukemia)?
Answer: 1050 nM

Question: And the GI50 (MCF7 breast)?
Answer: 213 nM

Question: And the TGI (MCF7 breast)?
Answer: 655 nM

Question: What about the GI50 (NCI-H23 lung) of the same compound?
Answer: 2480 nM

Question: What about the TGI (NCI-H23 lung) of the same compound?
Answer: 5300 nM

Question: And the GI50 (SN12C renal)?
Answer: 2440 nM

Question: And the TGI (SN12C renal)?
Answer: 5290 nM

Question: And the GI50 (MALME-3M melanoma)?
Answer: 343 nM

Question: What about the TGI (MALME-3M melanoma) of the same compound?
Answer: 640 nM

Question: And the GI50 (HCT-15 colon)?
Answer: 635 nM

Question: And the TGI (HCT-15 colon)?
Answer: 2290 nM

Question: What about the GI50 (PC-3 prostate) of the same compound?
Answer: 818 nM

Question: What about the TGI (PC-3 prostate) of the same compound?
Answer: 3280 nM

Question: And the GI50 (HCC-2998 colon)?
Answer: 570 nM

Question: What about the TGI (HCC-2998 colon) of the same compound?
Answer: 2080 nM

Question: What about the GI50 (SK-OV-3 ovarian) of the same compound?
Answer: 3510 nM

Question: And the TGI (SK-OV-3 ovarian)?
Answer: 6790 nM

Question: And the GI50 (SF-268 CNS)?
Answer: 609 nM

Question: What about the TGI (SF-268 CNS) of the same compound?
Answer: 3100 nM

Question: And the GI50 (OVCAR-4 ovarian)?
Answer: 571 nM

Question: What about the TGI (OVCAR-4 ovarian) of the same compound?
Answer: 1800 nM

Question: And the GI50 (A549 NSCLC)?
Answer: 753 nM

Question: What about the TGI (A549 NSCLC) of the same compound?
Answer: 3180 nM

Question: And the GI50 (RXF 393 renal)?
Answer: 339 nM

Question: What about the TGI (RXF 393 renal) of the same compound?
Answer: 874 nM

Question: What about the GI50 (CAKI-1 renal) of the same compound?
Answer: 515 nM

Question: What about the TGI (CAKI-1 renal) of the same compound?
Answer: 1760 nM

Question: What about the GI50 (SF-295 CNS) of the same compound?
Answer: 403 nM

Question: And the TGI (SF-295 CNS)?
Answer: 848 nM

Question: And the GI50 (SK-MEL-2 melanoma)?
Answer: 3010 nM

Question: What about the TGI (SK-MEL-2 melanoma) of the same compound?
Answer: 6160 nM

Question: What about the GI50 (IGROV1 ovarian) of the same compound?
Answer: 1170 nM

Question: What about the TGI (IGROV1 ovarian) of the same compound?
Answer: 4020 nM

Question: What about the GI50 (TK-10 renal) of the same compound?
Answer: 714 nM

Question: What about the TGI (TK-10 renal) of the same compound?
Answer: 3560 nM

Question: And the GI50 (HT29 colon)?
Answer: 385 nM

Question: What about the TGI (HT29 colon) of the same compound?
Answer: 917 nM

Question: What about the GI50 (SK-MEL-5 melanoma) of the same compound?
Answer: 363 nM

Question: What about the TGI (SK-MEL-5 melanoma) of the same compound?
Answer: 679 nM

Question: And the GI50 (CCRF-CEM leukemia)?
Answer: 438 nM

Question: What about the TGI (CCRF-CEM leukemia) of the same compound?
Answer: 1130 nM

Question: What about the GI50 (OVCAR-5 ovarian) of the same compound?
Answer: 1160 nM

Question: And the TGI (OVCAR-5 ovarian)?
Answer: 4110 nM

Question: And the GI50 (786-0 renal)?
Answer: 352 nM

Question: What about the TGI (786-0 renal) of the same compound?
Answer: 736 nM

Question: And the GI50 (MDA-MB-468 breast)?
Answer: 358 nM

Question: What about the TGI (MDA-MB-468 breast) of the same compound?
Answer: 805 nM

Question: And the GI50 (LOX IMVI melanoma)?
Answer: 380 nM

Question: And the TGI (LOX IMVI melanoma)?
Answer: 706 nM

Question: What about the GI50 (SF-539 CNS) of the same compound?
Answer: 353 nM

Question: What about the TGI (SF-539 CNS) of the same compound?
Answer: 660 nM

Question: What about the GI50 (COLO 205 colon) of the same compound?
Answer: 396 nM

Question: What about the TGI (COLO 205 colon) of the same compound?
Answer: 744 nM

Question: And the GI50 (HS 578T breast)?
Answer: 448 nM

Question: And the TGI (HS 578T breast)?
Answer: 1780 nM

Question: What about the GI50 (MDA-MB-435) of the same compound?
Answer: 470 nM

Question: And the TGI (MDA-MB-435)?
Answer: 1150 nM

Question: And the GI50 (SNB-75 CNS)?
Answer: 804 nM

Question: And the TGI (SNB-75 CNS)?
Answer: 4090 nM

Question: And the GI50 (NCI/ADR-RES ovarian)?
Answer: 1770 nM

Question: And the TGI (NCI/ADR-RES ovarian)?
Answer: 4650 nM

Question: What about the GI50 (DU-145 prostate) of the same compound?
Answer: 1100 nM

Question: What about the TGI (DU-145 prostate) of the same compound?
Answer: 3820 nM

Question: What about the GI50 (M14 melanoma) of the same compound?
Answer: 386 nM

Question: And the TGI (M14 melanoma)?
Answer: 768 nM

Question: And the GI50 (SW-620 colon)?
Answer: 339 nM

Question: What about the TGI (SW-620 colon) of the same compound?
Answer: 708 nM

Question: What about the GI50 (UACC-62 melanoma) of the same compound?
Answer: 377 nM

Question: And the TGI (UACC-62 melanoma)?
Answer: 709 nM

Question: What about the GI50 (RPMI-8226 leukemia) of the same compound?
Answer: 608 nM

Question: And the TGI (RPMI-8226 leukemia)?
Answer: 1820 nM

Question: What about the GI50 (HOP-92 NSCLC) of the same compound?
Answer: 508 nM

Question: And the TGI (HOP-92 NSCLC)?
Answer: 3280 nM

Question: What about the GI50 (NCI-H522 lung) of the same compound?
Answer: 354 nM

Question: And the TGI (NCI-H522 lung)?
Answer: 746 nM

Question: What about the GI50 (SNB-19 CNS) of the same compound?
Answer: 835 nM

Question: What about the TGI (SNB-19 CNS) of the same compound?
Answer: 3240 nM

Question: What about the GI50 (KM12 colon) of the same compound?
Answer: 771 nM

Question: What about the TGI (KM12 colon) of the same compound?
Answer: 2690 nM

Question: And the GI50 (K-562 leukemia)?
Answer: 621 nM

Question: And the TGI (K-562 leukemia)?
Answer: 22000 nM

Question: And the GI50 (EKVX NSCLC)?
Answer: 2430 nM

Question: What about the TGI (EKVX NSCLC) of the same compound?
Answer: 5280 nM

Question: And the GI50 (T-47D breast)?
Answer: 327 nM

Question: What about the TGI (T-47D breast) of the same compound?
Answer: 688 nM

Question: And the GI50 (HCT-116 colon)?
Answer: 370 nM

Question: What about the TGI (HCT-116 colon) of the same compound?
Answer: 847 nM

Question: What about the GI50 (UACC-257 melanoma) of the same compound?
Answer: 360 nM

Question: What about the TGI (UACC-257 melanoma) of the same compound?
Answer: 699 nM

Question: And the GI50 (NCI-H226 lung)?
Answer: 3890 nM

Question: What about the TGI (NCI-H226 lung) of the same compound?
Answer: 8050 nM
